According to patent US7576109B2, “1,3,4-oxadiazol-2-ones as PPAR delta modulators and their use thereof” (Aventis Pharmaceuticals Inc., priority 2004, dated 2009):

Tested on: rat oligodendrocyte cultures
Experiment: Primary rat oligodendrocyte differentiation assay (myelin basic protein expression)
Assay type: cell-based
Conditions: primary rat oligodendrocytes, compared to untreated controls
Excerpt: • 1. Primary rat oligodendrocyte progenitor cells are obtained from the neocortex of newborn (postnatal days 2-3) rats or mice and are enriched, after removal of microglia, by mechanical separation from the astrocytic monolayer using a modification of the technique originally described by McCarthy and de Vellis (1980). • 2. Remove the meninges from neonatal rat brain and mechanically dissociate tissue. Plate cells on T75 flasks and feed cells with DMEM/F12+10% FBS. • 3. Collect oligodendrocytes growing on the astrocyte bed layer by shaking-off method fourteen days after the original prep date. Centrifuge the suspension and resuspend the cell pellet in serum free media (SFM; DMEM combined with 25 μg/ml transferring, 30 nM triiodothyronine, 20 nM hydrocortisone, 20 nM progesterone, 10 nM biotin, 1× trace elements, 30 nM selenium, 1 μg/ml putrescine, 0.1% BSA, 5 U/ml PenStrep, 10 μg/ml insulin) supplemented with the following growth factors: Platelet derived growth factor-AA (PDGF) and fibroblast growth factor-2 (FGF). • 4. Plate the cells on PDL-coated dishes and incubate at 37° C. with 6-7% CO2. • 5. Media components are replaced every 48 hr to keep the cells in a progenitor state. Progenitor Cell Passaging to Increase Cell Numbers for Screening Assays: • 1. When the culture are confluent, rinse the culture with PBS, add trypsin and incubate for ˜2-3 min at 37° C. • 2. Neutralize and centrifuge the cell suspension at 900 g for 5 min. • 3. Resuspend the cell pellet in SFM+PDGF/FGF. • 4. Feed the cells with fresh growth factors every 48 hrs to keep enrich for rapidly dividing progenitor cells. • 5. Cells are passaged no more than 4-5 times prior to experimental assays. • 6. All experiments involving oligodendrocyte progenitor cells were done using cells that were continuously maintained under these conditions. Greater than 95% of all cells were A2B5 immunopositive and expressed 2′3′-cyclic nucleotide 3′-phosphodiesterase II mRNA. • 7. To generate mature oligodendrocytes, 24 h after plating progenitor cells were switched to SFM supplemented with or without IGF-I and grown under these conditions for 7 d prior to experimental assays. • 8. Alternatively, the enriched rat Central Glia-4 (CG4) progenitor cell line may be used, which is maintained in base media (DMEM, with 2 mM glutamine, 1 mM sodium pyruvate, biotin (40 nM), insulin (1 μM) and N1) supplemented with 30% conditioned media from the B-104 neuroblastoma cell line. To induce differentiation, CG4 cells are switched to base media with 1% fetal calf serum (removed after 2 days) and insulin (500 nM). A2B5 and MBP immunoreactivity is used to confirm >95% enrichment in immature and mature cultures, respectively. Rat/Mouse Culture Compound Treatment: • 1. […]

Structure (SMILES)	Fold Increase in Myelin Basic Protein Expression in Oligodendrocyte Differentiation Assay (concentration 10 μM)	Fold Increase in Myelin Basic Protein Expression in Oligodendrocyte Differentiation Assay (concentration 1 μM)
Cc1nc(-c2ccc(C(F)(F)F)cc2)sc1COc1ccc(-c2n[nH]c(=O)o2)cc1 [Example 10, 5-{4-[4-Methyl-2-(4-trifluoromethyl-phenyl)-thiazol-5-ylmethoxy]-phenyl}-3H-[1,3,4]oxadiazol-2-one]	1.5 fold (10)	–
Cc1nc(-c2ccc(C(F)(F)F)cc2)sc1COCc1ccc(-c2n[nH]c(=O)o2)cc1 [Example 14]	–	1.5 fold (1)
CCCCc1nc(-c2ccc(C(F)(F)F)cc2)sc1COc1ccc(-c2n[nH]c(=O)o2)c(Cl)c1 [Example 23]	–	2 fold (1)
CCCCc1nc(-c2ccc(C(F)(F)F)cc2)sc1COc1ccc(Cc2n[nH]c(=O)o2)cc1 [Example 31, 5-{4-[4-Butyl-2-(4-trifluoromethyl-phenyl)-thiazol-5-ylmethoxy]-benzyl}-3H-[1,3,4]oxadiazol-2-one]	–	2 fold (1)
